Measured values taken from US20240018120A1, “MAGL INHIBITORS” (H. LUNDBECK A/S, priority 2020, published 2024).

What was measured:
[1] = system: cryopreserved human hepatocytes; test: In vitro human hepatocyte stability; type: in vitro ADME; conditions: human hepatocytes 0.5×10^6 cells/mL, 1 μM
Description: The metabolic stability of test articles (1 μM) in commercially sourced, pooled donor, cryopreserved human hepatocytes (0.5×10^6 cells/mL) was determined in duplicate. The CLint reactions (250 μL) were initiated by addition of test compound. Aliquots (25 μL) were taken at 0, 15, 30, 45, 60, 90, 120 and 240 minutes and then protein crashed with ice-cold acetonitrile containing internal standard then centrifuged (3220 g for 25 minutes). Supernatant was used for LC-MS/MS analysis. The in vitro half-life (in vitro t½) was determined from the slope value: in vitro t1/2=−0.693/k. Conversion of the in vitro t1/2 (in min) into the scale-up unbound intrinsic clearance (Scaled-up unbound CLint, in mL/min/kg) was done using the following equation (mean of duplicate determinations), with data shown in Table 5: Scaled-up unbound CLint=kV/N×scaling factor. V=incubation volume (0.25 mL); N=number of hepatocytes per well ([…]). Scaling factors for in vivo intrinsic clearance prediction are listed below: […]

[2] = system: kainic acid seizure model; test: Kainic acid seizure model in the rat; type: in vivo
Description: Kainic acid is an analog of the excitatory neurotransmitter, glutamate and acts as an agonist of kainic acid receptors. After systemic injection, kainic acid induces prolonged excitatory responses with many of the features of human temporal lobe epilepsy.
Rats, placed in individual Plexiglas cages (33×21×18 cm), are injected with kainic acid (20 mg/kg i.p.). The occurrences of the following symptoms are noted over a 120-minute period 30 minutes after kainic acid injection: forelimb clonus, rearings and rearings with falling, clonic convulsions, tonic convulsions and death. The presence of each symptom and the latencies to the first appearance of the symptoms are measured. The number of forelimb clonus is counted.
12 rats are studied per group. The test is performed partially blind.
The test substances will be evaluated at multiple doses, administered p.o. 240 minutes before the test, and compared with the corresponding vehicle control group (Group 2, administered with 10% HP-b-CD in distilled water, p.o. 240 minutes before the test).
Example 6 was evaluated at 0.3, 1, 3 and 10 mg/kg, and Example 8 was evaluated at 1, 3 and 10 mg/kg, administered p.o. 4 hours before the test, and compared with a vehicle control group (administered with 10% HP-b-CD, p.o. 4 hours before the test).
Diazepam (16 mg/kg) used as reference substance, was administered p.o. 60 minutes before the test (0.5% HP-b-CD) and was compared with vehicle controls.
Quantitative data (latencies) with the test substance was analyzed by comparing treated groups with vehicle control using Kruskal-Wallis test followed by Mann-Whitney U test. Quantitative data with the reference substance will be analysed using Mann-Whitney U test.
Quantal data (frequencies) were analyzed by comparing treated groups with vehicle control using Fisher's Exact Probability tests.

O=C(Nc1cccnn1)[C@H]1CC12CCN(C(=O)OC(C(F)(F)F)C(F)(F)F)CC2 [Example 6, 1,1,1,3,3,3-Hexafluoropropan-2-yl (S)-1-(pyridazin-3-ylcarbamoyl)-6-azaspiro[2.5]octane-6-carboxylate]
Scaled-up unbound CLint [1]: 5.79 mL/min/kg
anticonvulsant effects in the kainic acid seizure test ([2]; dose-range 0.3-10 mg/kg p.o., 4 hours before the test, rat): clear anticonvulsant effects
magnitude of the effects in the kainic acid seizure test compared with reference ([2]; middle-high doses, reference Diazepam 16 mg/kg p.o.): close to those observed with the reference substance, Diazepam
